From patent US9243281B2, “Neuroprotective chemicals and methods for identifying and using same” (Board of Regents of The University of Texas System, priority 2013, dated 2016)

These compounds were tested on hippocampal neurogenesis (Dentate Gyrus) (assay: in vivo neurogenesis assay (BrdU+ cells in dentate gyrus)). Details: living mice; vehicle (DMSO) 7.3.
Parameters: species or system mice
Text: The screen was simple in concept. With help from chemists in the Department of Biochemistry at UTSWMC, we selected 1,000 druglike chemicals from the 250,000 compounds in our high throughput screening center. The compounds were selected to preserve representative chemical diversity of the entire library. They were further selected to enhance the representation of chiral molecules, and to avoid untoward chemical properties such as reactive moieties. The 1,000 molecules were randomly pooled into groups of ten, and each pool was administered directly into the left ventricle of two adult mice. Intracranial delivery was facilitated by stereotactic positioning of a canula fed directly by an Alzet mini-pump containing the mixture of ten chemicals. The drug mixture was administered over a week-long period at concentrations anticipated to deliver mid-nanomolar levels of the ten test compounds. Daily injections of the thymidine analog, bromodeoxyuridine (BrdU), were coadministered in order to monitor the formation of new hippocampal nerve cells. Following compound administration, animals were sacrificed such that brain tissue could be recovered, sectioned and stained with antibodies to BrdU. […]

Compound | Neurogenesis # BrdU+ Cells (X10E06)/mm3 Dentate Gyrus
COc1cccc(N(C)CC(O)Cn2c3ccc(Br)cc3c3cc(Br)ccc32)c1 (stereo not drawn) [S1] | 10.8 (X10E06)/mm3
COc1cccc(NCC(O)Cn2c3ccc(C)cc3c3cc(C)ccc32)c1 (stereo not drawn) [S2] | 8.1 (X10E06)/mm3
N=c1ccccn1CC(O)Cn1c2ccc(Br)cc2c2cc(Br)ccc21 (stereo not drawn) [S5] | 12.2 (X10E06)/mm3
OC(CSc1ccccc1)Cn1c2ccc(Br)cc2c2cc(Br)ccc21 (stereo not drawn) [S7] | 15.5 (X10E06)/mm3
OC(CNc1ncccn1)Cn1c2ccc(Br)cc2c2cc(Br)ccc21 (stereo not drawn) [S8] | 7.8 (X10E06)/mm3
COc1cccc(N(CC(O)Cn2c3ccc(Br)cc3c3cc(Br)ccc32)C(C)=O)c1 (stereo not drawn) [S9] | 11.9 (X10E06)/mm3
COc1cccc(NCC(O)Cn2c3ccc(C)cc3c3cc(Br)ccc32)c1 (stereo not drawn) [S14] | 13.5 (X10E06)/mm3
COc1cccc(NCC(O)Cn2c3ccc(Cl)cc3c3cc(Cl)ccc32)c1 (stereo not drawn) [S15] | 7.6 (X10E06)/mm3
COc1cccc(NC[C@H](O)Cn2c3ccc(Br)cc3c3cc(Br)ccc32)c1 [S16] | 9.2 (X10E06)/mm3
COc1cccc(NC[C@@H](O)Cn2c3ccc(Br)cc3c3cc(Br)ccc32)c1 [S17] | 14.9 (X10E06)/mm3
Cc1c(C)n(CC(O)CNc2ccccc2)c2ccc(Br)cc12 (stereo not drawn) [S18] | 10.9 (X10E06)/mm3
COCC(O)Cn1c2ccc(Br)cc2c2cc(Br)ccc21 (stereo not drawn) [S19] | 10.5 (X10E06)/mm3
NCC(O)Cn1c2ccc(Br)cc2c2cc(Br)ccc21 (stereo not drawn) [S20] | 12.7 (X10E06)/mm3
OC(CCc1ccccc1)Cn1c2ccc(Br)cc2c2cc(Br)ccc21 (stereo not drawn) [S21] | 8.8 (X10E06)/mm3
OC(Cn1ccc2ccccc21)Cn1c2ccc(Br)cc2c2cc(Br)ccc21 (stereo not drawn) [S22] | 6.7 (X10E06)/mm3
OCCCc1cn(CC(O)Cn2c3ccc(Br)cc3c3cc(Br)ccc32)nn1 (stereo not drawn) [S23] | 7.4 (X10E06)/mm3
CCOc1cccc(NCC(O)Cn2c3ccc(Br)cc3c3cc(Br)ccc32)c1 (stereo not drawn) [S24] | 8.0 (X10E06)/mm3
Cc1cc(C)n(CC(O)Cn2c3ccc(Br)cc3c3cc(Br)ccc32)n1 (stereo not drawn) [S25] | 7.0 (X10E06)/mm3
OC(CCn1c2ccc(Br)cc2c2cc(Br)ccc21)CNc1ccccc1 (stereo not drawn) [S26] | 7.5 (X10E06)/mm3
[O-][S+](CC(O)Cn1c2ccc(Br)cc2c2cc(Br)ccc21)c1ccccc1 (stereo not drawn) [S27] | 8.1 (X10E06)/mm3
O=S(=O)(CC(O)Cn1c2ccc(Br)cc2c2cc(Br)ccc21)c1ccccc1 (stereo not drawn) [S28] | 13.6 (X10E06)/mm3
COc1cccc(NCC(O)Cn2c3ccccc3c3cc(Br)ccc32)c1 (stereo not drawn) [S29] | 9.5 (X10E06)/mm3
OC(CNc1ccccc1)Cn1c2ccc(Br)cc2c2cc(Br)ncc21 (stereo not drawn) [S30] | 14.3 (X10E06)/mm3
COc1cccc(NC(=O)C(O)Cn2c3ccc(Br)cc3c3cc(Br)ccc32)c1 (stereo not drawn) [S31] | 10.4 (X10E06)/mm3
OC(CCNc1ccccc1)Cn1c2ccc(Br)cc2c2cc(Br)ccc21 (stereo not drawn) [S32] | 13.8 (X10E06)/mm3
OC(Cn1c2ccc(Br)cc2c2cc(Br)ccc21)Cn1c2ccc(Br)cc2c2cc(Br)ccc21 [S34] | 7.6 (X10E06)/mm3
OC(Cn1c2ccccc2c2ccccc21)Cn1c2ccc(Br)cc2c2cc(Br)ccc21 (stereo not drawn) [S35] | 8.6 (X10E06)/mm3

The compounds below were run against T1, p70 (NAMPT) (Homo sapiens, UniProt P43490) (assay: binding competition for photo-crosslinking of P7C3-S326 to p70 in H2122 cells). Details: 0.3 μM P7C3-S326 plus 5 μM competitor, p70 band intensity, P7C3-S326 alone compared with plus competitor, vehicle 1.0.
T1 construct: endogenous in cells; host or cells: H2122 lung cancer cells
Procedure: Cultured cells were co-exposed to P7C3-S326 (0.3 uM) and the individual P7C3 variants (5 uM), exposed to UV light, lysed, clicked to a fluorescent dye and run on SDS gels (FIG. 11).
P7C3-S326 was diluted to 0.3 μM in culture medium to treat H2122 cells. After incubation at 37° C. for 2 hours, H2122 cells were irradiated for 15 minutes under 306 nm ultraviolet light in a Stratalinker 2400 (Stratagene). Cells were then harvested by dissolving in 1% SDS lysis buffer 50 mM HEPES, pH 8.0, 2 mM MgCl2, 10 mM KCl, 1% SDS, 50 units/ml of Benzonase (Sigma), supplemented with Sigmafast protease inhibitor (Sigma).
The reaction was incubated at room temperature with constant agitation at 1,000 rpm on a thermomixer (Eppendorf) for 1 hour. Samples were then mixed with SDS sample loading buffer and loaded on an 8% SDS-PAGE gel, separated, and imaged using a Typhoon imager (filter settings: excitation 533 nm, emission 555 nm, and high sensitivity).
H2122 cells were incubated with the P7C3-S326 (0.3 μM) in the absence or presence of P7C3 analogs for 2 hours following by UV crosslinking. […] The samples were run on SDS-PAGE gels scanned using a Typhoon Imager. The p70 band intensity was analyzed and quantified by Image J, and the relative intensity in each assay was normalized to that of the DMSO control.

T1 sequence (P43490 whole entry): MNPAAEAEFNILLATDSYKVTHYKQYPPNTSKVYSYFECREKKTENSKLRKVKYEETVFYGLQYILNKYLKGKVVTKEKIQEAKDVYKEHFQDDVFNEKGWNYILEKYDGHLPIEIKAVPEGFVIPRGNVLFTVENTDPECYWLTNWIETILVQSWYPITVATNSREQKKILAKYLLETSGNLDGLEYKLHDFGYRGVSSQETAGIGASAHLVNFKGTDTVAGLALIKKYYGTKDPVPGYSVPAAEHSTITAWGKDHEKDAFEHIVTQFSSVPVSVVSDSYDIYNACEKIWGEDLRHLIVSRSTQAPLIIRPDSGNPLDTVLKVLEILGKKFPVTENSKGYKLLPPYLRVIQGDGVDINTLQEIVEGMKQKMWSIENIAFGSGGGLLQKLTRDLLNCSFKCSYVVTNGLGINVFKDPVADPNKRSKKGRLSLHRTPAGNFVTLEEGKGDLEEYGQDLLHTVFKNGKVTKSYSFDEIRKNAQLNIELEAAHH

Compound | Binding competition
COc1cccc(NCC(O)Cn2c3ccc(C)cc3c3cc(C)ccc32)c1 (stereo not drawn) [S2] | 3.7
N=c1ccccn1CC(O)Cn1c2ccc(Br)cc2c2cc(Br)ccc21 (stereo not drawn) [S5] | 1.4
OC(CSc1ccccc1)Cn1c2ccc(Br)cc2c2cc(Br)ccc21 (stereo not drawn) [S7] | 2.0
OC(CNc1ncccn1)Cn1c2ccc(Br)cc2c2cc(Br)ccc21 (stereo not drawn) [S8] | 4.7
COc1cccc(N(CC(O)Cn2c3ccc(Br)cc3c3cc(Br)ccc32)C(C)=O)c1 (stereo not drawn) [S9] | 2.0
COc1cccc(NCC(O)Cn2c3ccc(C)cc3c3cc(Br)ccc32)c1 (stereo not drawn) [S14] | 4.5
COc1cccc(NCC(O)Cn2c3ccc(Cl)cc3c3cc(Cl)ccc32)c1 (stereo not drawn) [S15] | 5.3
COc1cccc(NC[C@H](O)Cn2c3ccc(Br)cc3c3cc(Br)ccc32)c1 [S16] | 3.1
COc1cccc(NC[C@@H](O)Cn2c3ccc(Br)cc3c3cc(Br)ccc32)c1 [S17] | 1.9
Cc1c(C)n(CC(O)CNc2ccccc2)c2ccc(Br)cc12 (stereo not drawn) [S18] | 1.7
COCC(O)Cn1c2ccc(Br)cc2c2cc(Br)ccc21 (stereo not drawn) [S19] | 2.9
NCC(O)Cn1c2ccc(Br)cc2c2cc(Br)ccc21 (stereo not drawn) [S20] | 1.3
OC(CCc1ccccc1)Cn1c2ccc(Br)cc2c2cc(Br)ccc21 (stereo not drawn) [S21] | 2.3
OC(Cn1ccc2ccccc21)Cn1c2ccc(Br)cc2c2cc(Br)ccc21 (stereo not drawn) [S22] | 2.7
OCCCc1cn(CC(O)Cn2c3ccc(Br)cc3c3cc(Br)ccc32)nn1 (stereo not drawn) [S23] | 2.1
CCOc1cccc(NCC(O)Cn2c3ccc(Br)cc3c3cc(Br)ccc32)c1 (stereo not drawn) [S24] | 3.1
Cc1cc(C)n(CC(O)Cn2c3ccc(Br)cc3c3cc(Br)ccc32)n1 (stereo not drawn) [S25] | 1.4
[O-][S+](CC(O)Cn1c2ccc(Br)cc2c2cc(Br)ccc21)c1ccccc1 (stereo not drawn) [S27] | 2.8
O=S(=O)(CC(O)Cn1c2ccc(Br)cc2c2cc(Br)ccc21)c1ccccc1 (stereo not drawn) [S28] | 2.8
COc1cccc(NCC(O)Cn2c3ccccc3c3cc(Br)ccc32)c1 (stereo not drawn) [S29] | 4.2
OC(CNc1ccccc1)Cn1c2ccc(Br)cc2c2cc(Br)ncc21 (stereo not drawn) [S30] | 3.3
COc1cccc(NC(=O)C(O)Cn2c3ccc(Br)cc3c3cc(Br)ccc32)c1 (stereo not drawn) [S31] | 6.2
OC(CCNc1ccccc1)Cn1c2ccc(Br)cc2c2cc(Br)ccc21 (stereo not drawn) [S32] | 2.7
OC(Cn1c2ccc(Br)cc2c2cc(Br)ccc21)Cn1c2ccc(Br)cc2c2cc(Br)ccc21 [S34] | 1.0
